The test system of this experiment is U266 myeloma cell line. In words: Cell death in U266 myeloma cell line (Dapi dead / Fluo-4 live staining, imaging). In kind it is cell-based. The settings on record: Dapi for dead cells, Fluo-4 for live cells, imaged at 6 hours, n=3, compared with Compound A (FIG. 1). The protocol:
Compound 2 was tested alongside Compound A and cell death was measured in a U266 myeloma cell line. Dapi staining was used for detection of dead cells and Fluo-4 was used for staining live cells. Cells were then imaged at 6 hours using a Cytation 5 Biotek imaging plate reader.

“Also recorded” adds a separate entry of the source. Starred links: 1 amine or outer side, 2 acyl side, 3 side chain; linkers in the order of their positions; H or OH if unused. Positions of bridges follow the written chain, without caps; N, C: chain ends. Non-standard residues stand in square brackets, D forms with d. Residues, ends and D or L forms follow the SMILES beside them. *: point of attachment. dProlinol(O-CH2CO) = O=C(COC[C@H]1CCCN1[*:1])[*:2]; N(2-Aminoethyl)Gly = O=C(CN(CCN[*:3])[*:1])[*:2]; X1 = N[C@@H](CS)C(=O)NCCCS(=O)(=O)*; Nle = CCCC[C@H](N)C(=O)O

In the case of `CCCC[C@@H]1NC(=O)CN(S(=O)(=O)CCCNC(=O)[C@@H](N)CS)CCNC(=O)[C@H](CCCCN)NC(=O)[C@H](CC(C)C)NC(=O)[C@H](CCCCN)NC(=O)[C@H](CC(C)C)NC(=O)[C@H](CCCCN)NC(=O)COC[C@H]2CCCN2C(=O)[C@H](Cc2c[nH]c3ccccc23)NC(=O)[C@H](C)NC(=O)[C@H](C(C)C)NC(=O)[C@H](C(C)C)NC1=O` [Compound 2] (X1-[N(2-Aminoethyl)Gly][Nle]VVAW[dProlinol(O-CH2CO)]KLKLK; lactam 1-C), the “potency (cell death)” value was “increased potency relative to Compound A; also recorded: more potency compared to Compound A”.

For the origin of these results see US12060438B2, “Cyclic peptide compounds and methods of use thereof” (MODULATION THERAPEUTICS, INC., priority 2018, dated 2024).
